The values below come from ChEMBL document CHEMBL1201862, “PubChem BioAssay data set” (2004).

What all share (assay): NCI anticancer screen, dose series, 48 h
Assay [1] relates to MCF7.
For assay [2], the system named is PC-3.
The test system of assay [3] is COLO 205.
Assay [4] relates to UACC-257.
In assay [5] the test system is M14.
For assay [6], the system named is SK-MEL-28.
Assay [7] relates to BT-549.
Assay [8] concerns A498.
For assay [9], the system named is CCRF-CEM.
In assay [10] the test system is MDA-MB-231.
Assay [11] has as its system OVCAR-8.
Assay [12] has as its system CAKI-1.
The subject of assay [13] is MOLT-4.
For assay [14], the system named is 786-0.
Assay [15] has as its system NCI-H226.
For assay [16], the system named is EKVX.
Assay [17] deals with SK-MEL-2.
For assay [18], the system named is NCI-H522.
The subject of assay [19] is Malme-3M.

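Tested at 5 concentrations; 48 h exposure; 96-well plates; endpoints linearly interpolated, else capped at highest concentration. At the GI50, growth is halved.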 Activity calls are given as the source filed them. Rule as the data show it: active = GI50 up to about 1.1 µM and inactive = higher.

Turning to `O=c1c2cc(I)ccc2nc(S)n1Cc1ccccc1`, the GI50 in assay [1] is 28.1 µM (inactive); in [2], 13.7 µM (inactive); in assay [3], > 100 µM (inactive); in assay [4], 11.7 µM (inactive); in [5], 9.25 µM (inactive); in assay [6] it was 43.2 µM (inactive). Besides, the GI50 in assay [7] was 19.2 µM (inactive); in [8] it was 18.8 µM (inactive); in assay [9], 5.69 µM (inactive); in assay [10], 13.1 µM (inactive); in assay [11] it was 23.1 µM (inactive); in [12], 1.92 µM (inactive). In addition, the GI50 in [13] is > 100 µM (inactive); in assay [14] it was 11.5 µM (inactive); in assay [15] it was 15.5 µM (inactive); in assay [16], 5.52 µM (inactive); in assay [17], 14.6 µM (inactive); in [18], 3.96 µM (inactive).

Regarding `Cc1cc(C)n(C(=CC(=O)C(Cl)Cl)n2nc(C)cc2C)n1`, the GI50 in assay [1] is 3.94 µM (inactive); in assay [19], 4.35 µM (inactive); in assay [2], 11.4 µM (inactive); in [3] it was 13.8 µM (inactive); in assay [4], 1.32 µM (inactive); in assay [5], 2.83 µM (inactive). Also, the GI50 in [7] was 2.45 µM (inactive); in assay [8] it was 53.1 µM (inactive); in assay [9], 1.85 µM (inactive); in assay [10], 2.38 µM (inactive); in assay [11] it was 2.25 µM (inactive); in [12] it was 4.94 µM (inactive). Moreover, the GI50 in [13] is 0.151 µM (active); in assay [14], 2.07 µM (inactive); in [15] it was 0.735 µM (active); in assay [17] it was 3.69 µM (inactive); in [18], 1.79 µM (inactive).

Turning to `COc1ccc(C2c3c(n(C)c(=O)n(C)c3=O)OC(N(C)C)(N(C)C)C2(F)F)cc1` (stereo unspecified), the GI50 in [1], in assay [2], in assay [3], in [4], in assay [5] and in assay [6] was > 100 µM (inactive) in each case. Moreover, the GI50 is > 100 µM (inactive) in [7]; > 100 µM (inactive) in [8]; > 100 µM (inactive) in [9]; > 100 µM (inactive) in [10]; > 100 µM (inactive) in [12]; 2.92 µM (inactive) in [13]. Moreover, the GI50 in assay [14], in assay [15], in assay [16] and in [17] was > 100 µM (inactive) throughout.

As to `CC1C2CC(C(S(=O)(=O)N3CCOCC3)/C2=N\O)C1(C)C` (stereo unspecified), the GI50 in assay [1], in [19], in assay [2], in assay [3], in assay [4] and in assay [5] was > 100 µM (inactive) in each case. For the same compound, the GI50 in assay [6], in assay [7], in [8], in assay [9], in assay [10] and in [11] was > 100 µM (inactive) throughout. Also, the GI50 in assay [12], in [13], in assay [14], in assay [15], in [16] and in assay [18] was > 100 µM (inactive) each time.

Turning to `Cc1ccc(S(=O)(=O)N2CCc3cc(O)c([N+](=O)[O-])cc32)cc1`, the GI50 in assay [1], in assay [19], in [2], in assay [3], in assay [4] and in [5] was > 100 µM (inactive) throughout. The GI50 in [6], in [7], in assay [8], in assay [9], in assay [10] and in assay [11] was > 100 µM (inactive) in each case. For the same compound, the GI50 in assay [12], in assay [13], in assay [14], in assay [15], in assay [17] and in assay [18] was > 100 µM (inactive) each time.

In the case of `Cc1cc(=O)oc2cc(OC(=O)Nc3ccc(Cl)c(Cl)c3)ccc12`, the GI50 was 25.6 µM (inactive) in [1]; 23.1 µM (inactive) in assay [19]; 22.5 µM (inactive) in [2]; 32.4 µM (inactive) in assay [3]; 30.8 µM (inactive) in assay [4]; 22.6 µM (inactive) in assay [5]. Further, the GI50 was 25.4 µM (inactive) in assay [6]; 17.8 µM (inactive) in [7]; 14.2 µM (inactive) in assay [8]; 20.7 µM (inactive) in assay [9]; 26 µM (inactive) in assay [10]; 20.2 µM (inactive) in assay [11]. For the same compound, the GI50 in assay [12] is 38.3 µM (inactive); in assay [13], 17.1 µM (inactive); in [14] it was 38.8 µM (inactive); in assay [15], 20.3 µM (inactive); in assay [16] it was 30.8 µM (inactive); in [17], 21.6 µM (inactive). In [18], the GI50 was 17.3 µM (inactive).

Consider `O=C1Sc2ccccc2NC1=C(C(=O)c1ccccc1)C(=O)c1ccccc1`, for which the GI50 in assay [1] is 2.44 µM (inactive); in [19] it was 41.2 µM (inactive); in assay [2], 20.6 µM (inactive); in assay [3] it was 37.4 µM (inactive); in assay [4], 17.5 µM (inactive); in [5], 15.2 µM (inactive). In addition, the GI50 in assay [6] is > 100 µM (inactive); in assay [7] it was 35.9 µM (inactive); in assay [8] it was 34.8 µM (inactive); in assay [9], 1.18 µM (inactive); in [10], 65.6 µM (inactive); in assay [11], 22.9 µM (inactive). Moreover, the GI50 in assay [12] is 56.2 µM (inactive); in [14] it was 26.2 µM (inactive); in [15], 19.4 µM (inactive); in assay [16] it was 33.1 µM (inactive); in assay [17], 19.4 µM (inactive); in [18], 18.4 µM (inactive).

On to `COc1ccc(CCCNC(=O)c2cc(OC)c(OC)cc2CCO)cc1OC`, for which the GI50 in [1], in assay [2], in assay [3], in assay [4], in assay [5] and in assay [6] was > 100 µM (inactive) throughout. In addition, the GI50 in assay [7] is > 100 µM (inactive); in assay [8], > 100 µM (inactive); in assay [9], > 10 µM (inactive); in assay [10] it was > 100 µM (inactive); in [11] it was > 100 µM (inactive); in assay [12], > 100 µM (inactive). For the same compound, the GI50 in assay [13], in [14], in [15], in [16], in assay [17] and in [18] was > 100 µM (inactive) each time.

As for `N#CC(c1ccccc1)N(CCOCCOCCN(C(=O)c1ccccc1)C(C#N)c1ccccc1)C(=O)c1ccccc1` (stereo unspecified), the GI50 in assay [1] is > 100 µM (inactive); in assay [19] it was 93.5 µM (inactive); in assay [2], 37.5 µM (inactive); in [3], > 100 µM (inactive); in assay [4], 47.1 µM (inactive); in [5], > 100 µM (inactive). Further, the GI50 in assay [6] is 82.6 µM (inactive); in [7] it was > 100 µM (inactive); in [8], > 100 µM (inactive); in assay [9] it was 58.5 µM (inactive); in [10] it was > 100 µM (inactive); in assay [11] it was > 100 µM (inactive). Also, the GI50 in assay [12] is > 100 µM (inactive); in assay [13] it was 32.2 µM (inactive); in assay [14], > 100 µM (inactive); in [15], > 100 µM (inactive); in [16] it was > 100 µM (inactive); in assay [17], 85.3 µM (inactive).

Consider `O=c1c(C(c2cccc(C(c3c(O)oc4ccccc4c3=O)c3c(O)oc4ccccc4c3=O)c2)c2c(O)oc3ccccc3c2=O)c(O)oc2ccccc12`, for which the GI50 in [1] was 13.6 µM (inactive); in assay [2] it was 37.9 µM (inactive); in [3], 86.3 µM (inactive); in assay [4], 69 µM (inactive); in [5] it was > 100 µM (inactive); in [6] it was > 100 µM (inactive). Further, the GI50 in assay [7] was 27.9 µM (inactive); in [8], > 100 µM (inactive); in [9], 32.4 µM (inactive); in [10], 20.8 µM (inactive); in [11], 21.1 µM (inactive); in assay [12] it was 16.9 µM (inactive). Moreover, the GI50 was 29.2 µM (inactive) in assay [13]; 17.7 µM (inactive) in [14]; 44.7 µM (inactive) in [15]; 67.3 µM (inactive) in [16]; > 100 µM (inactive) in assay [17]; 14.5 µM (inactive) in assay [18].

With `NC(=O)C1=C(c2ccccc2)c2ccccc2C1=O`, the GI50 was 16.1 µM (inactive) in assay [1]; 17.8 µM (inactive) in [2]; 22 µM (inactive) in assay [3]; 13.6 µM (inactive) in [4]; 19.1 µM (inactive) in [5]; 20.1 µM (inactive) in [6]. For the same compound, the GI50 in assay [7] is 16.9 µM (inactive); in assay [8], 28 µM (inactive); in assay [9], 2.75 µM (inactive); in [10], 17.8 µM (inactive); in assay [11], 15.6 µM (inactive); in [12] it was 16 µM (inactive). Moreover, the GI50 is 3.37 µM (inactive) in assay [13]; 15.7 µM (inactive) in assay [14]; 18.2 µM (inactive) in assay [15]; 18.8 µM (inactive) in assay [16]; 19.9 µM (inactive) in [17]; 18.6 µM (inactive) in assay [18].
